Laboratory results published in patent US9579406B2, “Phospholipid ether analogs as agents for detecting and locating cancer, and methods thereof” (Cellectar, Inc., priority 2004, dated 2017).
“Also recorded” adds a separate entry of the source. Read-outs that look alike come from different tables or passages of the source. Each block holds one compound with its values, some of them ahead of it.

Assays:
[1] = tested on: Walker-256 carcinosarcoma; assay: Tissue distribution of radioactivity in rats bearing Walker-256 carcinosarcoma; format: in vivo, rat
[2] = tested on: MAT LyLu cells; assay: Gamma camera scintigraphy in rat Dunning R3327 (MAT LyLu) prostate cancer model; conditions: tumor-bearing rats, 24 and 48 hours post injection
Description: The MatLyLu (Dunning R3327 rat) model, a rat prostate tumor line, was used specifically to screen 9 specific analogs prior to entering them into control for dosimetry and tumor-bearing animals for determining tumor/background ratios.
In order to expedite the screening process and minimize the number of tumor bearing animals utilized in multiple time point tissue distribution studies, new radioiodinated homologs were imaged by gamma camera scintigraphy in the rat Dunning R3337 (MAT LyLu strain) prostate cancer model. […] Gamma camera images were obtained at multiple time points including 24 and 48 hours post injection.
The new PLE analogs were synthesized and radiolabeled with ^125I for initial image analysis in Copenhagen rats bearing Dunning R3327 prostate tumors.

[3] = tested on: carrageenan-induced granulomas; assay: Uptake in carrageenan-induced granulomas; design: species or system rats; conditions: rat, in vivo
Text: This lack of specificity is a significant clinical issue in patients with cancer.

[4] = tested on: several animal tumor models; assay: Animal tumor localization studies with first generation PLE analogs; format: in vivo; conditions: iodine-125 labeled; Walker 256, Lewis mammary, Dunning R3327, Vx2, human xenografts
Text: Phospholipid ethers can easily be labeled with iodine radioisotopes using radiolabeling methods developed in the labs. The iodophenyl phospholipid ether analogs are specifically designed so that the radioiodine affixed to each molecule is stable to facile in vivo deiodination. […] The inventors have now synthesized over 20 radiolabeled PLE compounds and tested in vitro and in vivo. […] Optimal tumor localization of these agents takes from one to several days due to the more rapid clearance of the radioactivity from normal tissues relative to tumor.

[5] = MIRD extrapolation of rat tissue distribution data to permissible human dose; design: species or system human (from rat data)
Text: Accordingly the inventors have conducted the preliminary pharmacokinetic studies in human lung cancer patients at 1 mCi. Similar extrapolative calculation of the dosimetry for ^124I-NM404 afforded a similar 2 mCi dose level again based on projected dosimetry to the adrenals and bladder wall. Preliminary human data (5 patients), however, indicate very little uptake and retention of the agent into any abdominal organ (including the bladder and adrenals) with the exception of the liver which returns to background levels within 11 days.
Dosing of radioiodinated ^124I NM404 will be based on MIRD extrapolation of the iodine-131 dosimetry data derived from this ongoing study. The ^131I-NM404 dose is currently calculated as follows: Animal biodistribution data is used to determine the percentage of injected dose/organ at varying time points. These animal data are extrapolated to man by means of MIRD formalism (MIRDOSE PC v3.1) using standard conversion factors for differences in organ mass and anatomy between rat and standard man, providing predicted human organ doses; Based on these predicted doses, the permissible mCi dose to be injected into humans is determined using the maximal doses legally permitted by RDRC regulations for specific human tissue as defined in the Federal Register (21CFR Part 361.1) e.g. whole body, blood, blood forming tissues, eye lens, gonads—3 rem/dose; any other tissue—5 rem/dose. This approach was previously used to bring both NM324 and NM404 to clinical use, resulting in a calculated dose of 1 mCi.

[6] = tested on: lung cancer; assay: Initial clinical studies of NM-324 in lung cancer patients; format: in vivo, human; conditions: for liver radioactivity in patients: human, in vivo; for tumor uptake in cancer patients: scintigraphy
[7] = tested on: rat mammary tumor; assay: Biodistribution in rat mammary tumor model; format: in vivo
Description: In one such example in a rat mammary tumor model, tumor-to-normal tissue ratios reached a maximum at 96 hours with a tumor-to-blood ratio of 8.6 and tumor-to-muscle ratio of 20:1.
Extensive biodistribution data for the prototype agent ^125I-NM324 in several tumor models has previously been reported. […] For example, in a rat mammary tumor model, tumor-to-normal tissue ratios reached a maximum at 96 hours with a tumor-to-blood ratio of 8.6 and tumor-to-muscle ratio of 20:1. […] Comparative biodistribution data for NM324 and NM404 in SCID mice have been obtained in prostate and A549 lung cancer tumor models.

[8] = Blood plasma kinetics in rats; format: in vivo; conditions: rat, read-out: elimination half life time in plasma (converted)
[9] = tested on: serum proteins; conditions: cited from earlier work
[10] = mouse; cited from earlier work
[11] = cited from earlier work
[12] = tested on: A549 lung, PC-3 prostate, c-myc pancreatic tumors; assay: microPET imaging in lung, prostate and pancreatic mouse tumor models; format: in vivo; conditions: any time point
Text: Human pharmacokinetic studies have confirmed this finding as only 4% of the agent is cleared renally within 4 days of iv injection (majority is excreted via GI route).

[13] = tested on: CNS-1 glioma brain tumor; assay: microPET imaging in rat CNS-1 brain tumor model; format: in vivo; conditions: 24 h after iv injection
Description: The inventors recently successfully radiolabeled NM404 twice with iodine-124 from a commercial vendor (Eastern Isotopes). The radiochemical yield (>60% mean isolated yield, >99% purity) was very similar to what we usually obtain with commercial sources of iodine-125 or 131 sodium iodide. The PET imaging characteristics of ^124I-NM404 in a rat CNS-1 brain tumor model (FIG. 24) was investigated. Imaging times in this preliminary study were limited to 24 h and 4 days post injection due to microPET scanner availability. […] These compounds may then be used for extending NM404 PET utility into human cancer patients.

[14] = rats, cited from earlier work
[15] = format: in vivo, human
[16] = tested on: non-small cell lung cancer; conditions: human, in vivo
Description: (§1) The preparation dispensed by the Nuclear Pharmacy will be certified as sterile and pyrogen-free. The subject will be monitored for adverse reactions during and after the infusion. Vital signs will be checked immediately after the infusion, and at 60 minute intervals up to four hours post-injection. They will be observed for adverse events throughout this time. […] Vital signs will be monitored at these times. Any adverse reactions experienced by the subjects will be recorded.

[17] = tested on: non-small cell lung cancer; assay: Planar gamma-camera scintigraphy with 131I-NM-404 in NSCLC patients; conditions: <1 mCi, n=3
Description: as §1

[18] = target: T1, Phospholipase C (PLC) (Bacillus cereus, UniProt P09598); assay: PLC substrate assay; format: biochemical
T1 construct: PLC isolated from Bacillus cereus; host or cells: Bacillus cereus (natural source)
T1 sequence (P09598 39-283 limits assumed): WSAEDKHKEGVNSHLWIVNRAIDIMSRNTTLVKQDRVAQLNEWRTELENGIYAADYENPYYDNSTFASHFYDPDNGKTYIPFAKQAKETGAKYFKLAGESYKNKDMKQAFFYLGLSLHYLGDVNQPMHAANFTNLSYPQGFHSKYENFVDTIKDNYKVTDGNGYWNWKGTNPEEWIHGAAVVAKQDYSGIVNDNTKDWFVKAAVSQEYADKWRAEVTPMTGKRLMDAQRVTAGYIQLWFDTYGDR
Description: Formal metabolism studies were conducted on several PLE analogs including NM324, the predecessor of NM404. In these studies, each agent was examined to determine their ability to serve as substrates for enzymes associated with PLE metabolism. Three major enzymatic pathways are involved in the metabolism of PLE. O-Alkyl glycerol monooxygenase (AGMO) is responsible for cleavage of the alkyl ether linkage at C-1 to form either the long chain fatty alcohol or subsequently, the corresponding fatty acid. Phospholipases C (PLC) and D (PLD), on the other hand, give rise to the glycerol or phosphatidic acid products, respectively.

Structure (SMILES): C[N+](C)(C)CCOP(=O)([O-])OCCCCCCCc1ccc(I)cc1 [NM-396]
- radioactivity in all of the organs surveyed ([1]; 24 hours): < 0.10 % ID/g
- radioactivity in the thyroid ([1]; 24 hours): 213 % ID/g
- localization in tumor tissue ([1]; all time points examined): did not localize in tumor tissue at any of the time points examined

Structure (SMILES): C[N+](C)(C)CCOP(=O)([O-])OCCCCCCCCCCCCCCCc1ccc(I)cc1 [NM-397]
- tumor uptake and liver/abdominal radioactivity by gamma camera imaging [2]: readily visualized
- increase in tumor uptake versus C12 analog 4 ([1]; 24 h): 2 fold
- radioactivity in the duodenum (maximum) ([1]; 48 hours after administration): 1.38±0.24 % ID/g
- radioactivity in the tumor (peak) ([1]; 48 hours after administration): 1.65±0.23 % of ID/g
- blood levels ([1]; 120 hours): 0.07±0.00 % of ID/g
- time of peak tumor radioactivity ([1]; after administration): 48 h

Structure (SMILES): O=C([O-])CC(O)(CC(=O)[O-])C(=O)[O-].[Ga+3] [Gallium citrate, reference compound]
- uptake and retention in granulomas [3]: did indeed concentrate significantly in the granulomatous lesions

Structure (SMILES): COC(COCCCCCCCCCCCCc1cccc([125I])c1)COP(=O)([O-])OCC[N+](C)(C)C (stereo not drawn) [NM-294]
- tumor localization [4]: selectively localized in tumors over time

Structure (SMILES): C[N+](C)(C)CCOP(=O)([O-])OCCCOCCCCCCCCCCCCCCCCCCc1ccc(I)cc1 [NM-412, 1-O-[18-(p-Iodophenyl)octadecyl]-1,3-propanediol-3-phosphocholine]
- tumor uptake and liver/abdominal radioactivity by gamma camera imaging [2]: high levels of liver and abdominal radioactivity; also recorded: tumor uptake accompanied by high liver and abdominal radioactivity levels
- tumor uptake and liver/abdominal radioactivity by gamma camera imaging ([2]; listed as 8): fairly high levels of liver and abdominal radioactivity

- calculated dose for clinical use [5]: 1 mCi
- liver radioactivity in patients [6]: high liver radioactivity
- tumor-to-blood ratio ([7]; 96 hours): 8.6
- time of maximum tumor-to-normal tissue ratios ([7]; rat, in vivo): 96 h
- half-life [8]: 2.43 h
Structure (SMILES): C[N+](C)(C)CCOP(=O)([O-])OCCCCCCCCCCCCc1cccc(I)c1 [NM-324, 12-(3-iodophenyl)-dodecylphosphocholine]
- tumor localization [4]: selectively localized in tumors over time
- liver radioactivity in patients ([6]; listed as NM324): unacceptable accumulation in liver tissue
- lung tumor uptake ([6]; images 6 h post injection, lung cancer patient): intense lung tumor uptake
- tumor uptake in cancer patients [6]: excellent tumor uptake
- tumor uptake in cancer patients ([6]; listed as 131I-NM-324): Uptake is seen in the left lingular lung cancer (T) with increasing tumor-to-background ratios over time
- uptake and retention in granulomas [3]: no uptake and retention

Structure (SMILES): CCCCCCCCCCCCCCCCCCOCC(COP(=O)([O-])OCC[N+](C)(C)C)OC (stereo not drawn) [ET-18-OCH3]
- ether lipid bound to HDL [9]: about 6%
- ether lipid bound to albumin [9]: 71%
- LD50 (oral) [10]: 200 mg/kg
- maximum tolerated dose ([11]; intravenous): 50 mg/kg
- adverse effects reported ([11]; up to 4 hours post-injection): pulmonary edema impaired hepatic function and hemolysis

Structure (SMILES): C[N+](C)(C)CCOP(=O)([O-])OCCCCCCCCCCCCc1ccc(I)cc1 [NM-346]
- tumor uptake and liver/abdominal radioactivity by gamma camera imaging [2]: readily visualized

Structure (SMILES): C[N+](C)(C)CCOP(=O)([O-])OCCCCCCCCCCCCCCCCCCc1ccc([124I])cc1 [^124I-NM404]
- dose level based on projected dosimetry to the adrenals and bladder wall ([5]; 124I label): 2 mCi
- bladder activity [12]: lack of bladder activity at any time point; also recorded: No bladder activity was evident at any time point
- tracer uptake in brain tumor and surrounding brain [13]: intense uptake of the tracer in the brain tumor accompanied by little or no uptake in surrounding intact brain tissue

Structure (SMILES): CCCCCCCCCCCCCCCCOP(=O)([O-])OCC[N+](C)(C)C [Miltefosine, hexadecyl phosphocholine]
- maximum tolerated dose ([14]; over a 4-week period): 39 nmol/kg
- LD50 [14]: 606 nmol/kg

Structure (SMILES): C[N+](C)(C)CCOP(=O)([O-])OCCCCCCCCCCCCCCCCCCc1ccc([131I])cc1 [^131I-NM404]
- starting maximum dose [5]: around 1.9 mCi
- 5 Rad limiting dose to the adrenals and bladder wall ([5]; 131I label): 2 mCi
- time for liver to return to background levels ([15]; 5 patients): ≤ 11 days
- dose level safe to administer ([15]; advanced non-small cell lung cancer subjects): 0.0003 mg/kg
- safety ([15]; first-in-human pharmacokinetic studies): safe
- crossing of the blood brain barrier [16]: doesn't cross the intact blood brain barrier
- tumor uptake and retention [17]: tumor uptake and prolonged retention in the primary lung tumors

Structure (SMILES): COC(COCCCCCCCCCCCCCCCCCCc1ccc(I)cc1)COP(=O)([O-])OCC[N+](C)(C)C (racemic) [NM-410, 1-O-[18-(p-Iodophenyl)octadecyl]-2-O-methyl-rac-glycero-3-phosphocholine]
- tumor uptake and liver/abdominal radioactivity by gamma camera imaging [2]: high hepatic uptake, significant abdominal accumulation and retention or poor tumor uptake and retention; also recorded: high radioactivity levels in the liver and abdomen with little to no uptake of the agent into tumors
- tumor uptake and liver/abdominal radioactivity by gamma camera imaging ([2]; listed as 10): retarded tumor uptake significantly

Structure (SMILES): [3H]C(CCCCCC)C([3H])CCCCCCCC(=O)O[C@H](COC(=O)CCCCCCCCCCCCCCC)COP(=O)([O-])OCC[N+](C)(C)C (stereo partly drawn) [DPPC, 1-palmitoyl-2-[3H]-palmitoyl-L-3-phosphatidylcholine]
- hydrolysis by PLC [18]: underwent significant hydrolysis
